Laboratory results as given in patent publication US10004748B2, “Methods of treating PR-positive, luminal A breast cancer with PI3K inhibitor, pictilisib” (Genentech, Inc., priority 2014, dated 2018).
“And” between values parts separate entries of the source, which are not always exact repeats. Equal entries are not always repeated. Where two headings read alike, the source gives them in different places.

How the values were obtained:
[1] = system: cytochrome P450 enzymes, including CYP2C8 and CYP3A4/5; experiment: In vitro metabolism studies; assay type: in vitro ADME; settings: preliminary results
[2] = system: advanced or metastatic ER+ breast cancer (MBC); settings: for Median PFS / Events (PFS): all arms on fulvestrant; for HR (PFS): GDC-0941 vs placebo, both on fulvestrant
[3] = for Discontinued GDC-0941/placebo: Non-PD, patients (%): events unrelated to disease progression, all arms on fulvestrant
[4] = All luminal A/B typed patients (N 74/72)
[5] = PIK3CA Mutation Status Positive
[6] = PIK3CA Mutation Status Wild Type
[7] = PR+ subgroup of PAM50-typed patients (N 50/52)
[8] = 340 mg dose in combination with fulvestrant

CS(=O)(=O)N1CCN(Cc2cc3nc(-c4cccc5[nH]ncc45)nc(N4CCOCC4)c3s2)CC1 [GDC-0941, 4-(2-(1H-indazol-4-yl)-6-((4-(methylsulfonyl)piperazin-1-yl)methyl)thieno[3,2-d]pyrimidin-4-yl)morpholine]
in vitro metabolism [1]: partially metabolized by multiple Phase I cytochrome P450 enzymes, including CYP2C8 and CYP3A4/5
Median PFS ([2]; All Patients (ITT)): 6.2 Months
HR (PFS) [2, 4]: 0.81
Events (PFS) [2, 4]: 33/39
Median PFS [2, 4]: 6.18/5.09 months
Median PFS ([2]; Baseline ECOG Score 0): 6.6 Months
Median PFS ([2]; Baseline ECOG Score 1): 5.0 Months
Median PFS ([2]; Bone Only Non-Measureable Disease at Baseline No): 5.0 Months
Events (PFS) ([2]; LumA (N 46/52)): 15/27
Events (PFS) ([2]; LumB (N 28/20)): 18/12
Median PFS ([2]; LumB (N 28/20)): 3.7 months and 3.71/3.55 months
HR (PFS) ([2]; LumB): 1.05
Median PFS ([2]; Measurable Disease at Baseline (Derived) Yes): 5.0 Months
Median PFS ([2]; Num of Previous Therapies in Metastatic Setting 0): 6.6 Months
Median PFS ([2]; Num of Previous Therapies in Metastatic Setting 1): 6.2 Months
Median PFS ([2]; Num of Previous Therapies in Metastatic Setting 3+): 3.6 Months
Median PFS ([2]; PIK3CA Helical Domain Mutation Status Positive): 7.3 Months
Median PFS ([2]; PIK3CA Helical Domain Mutation Status Wild Type): 6.2 Months
Median PFS ([2]; PIK3CA Kinase Domain Mutation Status Positive): 6.2 Months
Median PFS ([2]; PIK3CA Kinase Domain Mutation Status Wild Type): 6.6 Months
Median PFS [2, 5]: 6.2 Months
Median PFS [2, 6]: 5.8 Months
Median PFS ([2]; PR Status Negative): 5 Months
Median PFS ([2]; PR Status Negative, listed as GDC0941): 5.0 Months
Median PFS ([2]; PR Status Positive (n=116)): 7.2 Months
Median PFS ([2]; PR Status Unknown): 2.9 Months
HR (PFS) [2, 7]: 0.47
Events (PFS) [2, 7]: 19/32
Median PFS [2, 7]: 7.16/3.68 months
Events (PFS) ([2]; PR+, LumA (N 34/39)): 9/25
HR (PFS) ([2]; PR+, LumA (n=73)): 0.31
Events (PFS) ([2]; PR+, LumB (N 16/13)): 10/7
Median PFS ([2]; PR+, LumB (N 16/13)): 3.91/3.32 months
HR (PFS) ([2]; PR+, LumB): 0.92
Events (PFS) ([2]; PR−, LumA (N 9/7)): 3/2
HR (PFS) ([2]; PR−, LumA): 1.75
Median PFS ([2]; Primary Resistance (Derived)): 5.0 Months
Median PFS ([2]; Primary/Secondary Resistance Unknown): 1.7 Months
Median PFS ([2]; Received Prior Adjuvant/Neo-Adjuvant Therapy No): 4.1 Months
Median PFS ([2]; Received Prior Adjuvant/Neo-Adjuvant Therapy Yes): 7.2 Months
Median PFS ([2]; Visceral Disease No): 8.2 Months
Median PFS ([2]; Visceral Disease Yes): 4.1 Months
Overall improvement of median PFS vs placebo group ([2]; patients positive for both the estrogen and progesterone receptor): over 15 weeks
Patients who experienced a dose modification for an adverse event [3, 8]: 66%
Rate of discontinuation for non-PD events [3, 8]: 31%
Tolerability [3, 8]: acceptable tolerability profile
Discontinued GDC-0941/placebo: Non-PD, patients (%) [3]: 28 (31%)
Urinary tract infection, All Grades, patients (%) ([3]; human, in vivo): 9 (10%)
AST increased, All Grades, patients (%) ([3]; n = 89, with fulvestrant): 11 (12%)
AST increased, Grade ≥3, patients (%) ([3]; n = 89, with fulvestrant): 3 (3%)
Abdominal pain, All Grades, patients (%) ([3]; n = 89, with fulvestrant): 9 (10%)
Abdominal pain, Grade ≥3, patients (%) ([3]; n = 89, with fulvestrant): 2 (2%)
Alopecia, All Grades, patients (%) ([3]; n = 89, with fulvestrant): 10 (11%)
Arthralgia, All Grades, patients (%) ([3]; n = 89, with fulvestrant): 11 (12%)
Constipation, All Grades, patients (%) ([3]; n = 89, with fulvestrant): 14 (16%)
Cough, All Grades, patients (%) ([3]; n = 89, with fulvestrant): 14 (15%)
Decreased appetite, All Grades, patients (%) ([3]; n = 89, with fulvestrant): 20 (23%)
Decreased appetite, Grade ≥3, patients (%) ([3]; n = 89, with fulvestrant): 1 (1%)
Diarrhea, All Grades, patients (%) ([3]; n = 89, with fulvestrant): 58 (65%)
Diarrhea, Grade ≥3, patients (%) ([3]; n = 89, with fulvestrant): 5 (6%)
Discontinued GDC-0941/placebo: Adverse Events, patients (%) ([3]; n = 89, with fulvestrant): 16 (18%)
Discontinued fulvestrant for non-PD, patients (%) ([3]; n = 89, with fulvestrant): 15 (17%)
Dry skin, All Grades, patients (%) ([3]; n = 89, with fulvestrant): 9 (10%)
Dysgeusia, All Grades, patients (%) ([3]; n = 89, with fulvestrant): 35 (39%)
Dyspepsia, All Grades, patients (%) ([3]; n = 89, with fulvestrant): 10 (11%)
Dyspneoa, All Grades, patients (%) ([3]; n = 89, with fulvestrant): 10 (11%)
Fatigue, All Grades, patients (%) ([3]; n = 89, with fulvestrant): 36 (40%)
Fatigue, Grade ≥3, patients (%) ([3]; n = 89, with fulvestrant): 5 (6%)
Headache, All Grades, patients (%) ([3]; n = 89, with fulvestrant): 12 (14%)
Headache, Grade ≥3, patients (%) ([3]; n = 89, with fulvestrant): 1 (1%)
Hot flush, All Grades, patients (%) ([3]; n = 89, with fulvestrant): 12 (13%)
Hyperglycemia, All Grades, patients (%) ([3]; n = 89, with fulvestrant): 16 (18%)
Hyperglycemia, Grade ≥3, patients (%) ([3]; n = 89, with fulvestrant): 4 (5%)
Injection site pain, All Grades, patients (%) ([3]; n = 89, with fulvestrant): 10 (11%)
Mucosal inflammation, All Grades, patients (%) ([3]; n = 89, with fulvestrant): 9 (10%)
Muscle spasms, All Grades, patients (%) ([3]; n = 89, with fulvestrant): 10 (11%)
Nausea, All Grades, patients (%) ([3]; n = 89, with fulvestrant): 48 (54%)
Nausea, Grade ≥3, patients (%) ([3]; n = 89, with fulvestrant): 2 (2%)
Pruritus, All Grades, patients (%) ([3]; n = 89, with fulvestrant): 11 (12%)
Pruritus, Grade ≥3, patients (%) ([3]; n = 89, with fulvestrant): 1 (1%)
Pyrexia, All Grades, patients (%) ([3]; n = 89, with fulvestrant): 12 (13%)
Stomatitis, All Grades, patients (%) ([3]; n = 89, with fulvestrant): 16 (18%)
Stomatitis, Grade ≥3, patients (%) ([3]; n = 89, with fulvestrant): 2 (2%)
Vomiting, All Grades, patients (%) ([3]; n = 89, with fulvestrant): 24 (27%)
Vomiting, Grade ≥3, patients (%) ([3]; n = 89, with fulvestrant): 2 (2%)

C[C@]12CC[C@@H]3c4ccc(O)cc4C[C@@H](CCCCCCCCC[S+]([O-])CCCC(F)(F)C(F)(F)F)[C@H]3[C@@H]1CC[C@@H]2O (stereo partly drawn) [fulvestrant, (7α,17β)-7-{9-[(4,4,5,5,5-pentafluoropentyl)sulfinyl]nonyl}estra-1,3,5(10)-triene-3,17-diol, reference compound]
Median PFS ([2]; All Patients (ITT)): 3.8 Months
Median PFS ([2]; Luminal A subgroup (n=98)): 5.26 months
Median PFS [2, 5]: 5.1 Months
Median PFS [2, 6]: 3.6 Months
Median PFS ([2]; PR Status Positive (n=116)): 3.7 Months
Median PFS ([2]; PR-positive and Luminal A (n=73)): 5.7 months
Response rate on the basis of local assessment ([2]; all patients): 5%
Response rate ([2]; patients with PIK3CA-mutant tumors): 3%
Response rate ([2]; patients without a detectable PIK3CA-mutant tumor): 5%
Discontinued GDC-0941/placebo: Non-PD, patients (%) [3]: 10 (13%)
